According to PubChem BioAssay AID1963426 (Molecular Pharmacology Branch, DTP, NCI, 2024):

Tested on: 186277-243-T-J2-PDC complex spheroid growth, % test/control
Assay: Anticancer human tumor 186277-243-T-J2-PDC patient-derived colon adenocarcinoma cell line growth inhibition [Asc]
Conditions: for IC50: curve of first compound; for viability, T/C: stronger effect = lower value
Method in brief: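 Stromal components (HUVEC and hMSC) are co-assembled with the cancer cells into multicellular spheroids. Drugs are then added singly or paired, at concentrations falling by half-log increments from a clinically achievable maximum, capped at 10 microM without known Cmax.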
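Note: spheroids exposed to agents for 7 days.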
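Throughout, for viability, T/C: 100% = DMSO vehicle control wells.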

NC(=O)C(=Cn1cnc(-c2cc(C(F)(F)F)cc(C(F)(F)F)c2)n1)c1cncnc1 + Cc1c(S(C)(=O)=O)c(-c2cc(F)cc(N3CCN(c4ccc(NS(=O)(=O)c5ccc(NC(CCN6CCC(C(=O)OCCCP(=O)(O)O)CC6)CSc6ccccc6)c(S(=O)(=O)C(F)(F)F)c5)cc4)CC3)c2)c(-c2ccc(Cl)cc2)n1C(C)C
IC50 (second compound 0.1 µM): 0.108 µM
IC50 (second compound 0.316 µM): 0.0842 µM
IC50 (second compound 1 µM): 0.0657 µM
IC50 (second compound 3.16 µM): 0.0568 µM
IC50 (second compound 10 µM): 0.0554 µM
viability, T/C (second compound 0.1 µM, first compound 0.000949 µM): 109%
viability, T/C (second compound 0.1 µM, first compound 0.003 µM): 99.3%
viability, T/C (second compound 0.1 µM, first compound 0.00949 µM): 113%
viability, T/C (second compound 0.1 µM, first compound 0.03 µM): 90.8%
viability, T/C (second compound 0.1 µM, first compound 0.0949 µM): 56.2%
viability, T/C (second compound 0.1 µM, first compound 0.3 µM): 6.16%
viability, T/C (second compound 0.316 µM, first compound 0.000949 µM): 96.3%
viability, T/C (second compound 0.316 µM, first compound 0.003 µM): 99%
viability, T/C (second compound 0.316 µM, first compound 0.00949 µM): 89.5%
viability, T/C (second compound 0.316 µM, first compound 0.03 µM): 94.9%
viability, T/C (second compound 0.316 µM, first compound 0.0949 µM): 44.8%
viability, T/C (second compound 0.316 µM, first compound 0.3 µM): 4.07%
viability, T/C (second compound 1 µM, first compound 0.000949 µM): 96.8%
viability, T/C (second compound 1 µM, first compound 0.003 µM): 101%
viability, T/C (second compound 1 µM, first compound 0.00949 µM): 101%
viability, T/C (second compound 1 µM, first compound 0.03 µM): 98.2%
viability, T/C (second compound 1 µM, first compound 0.0949 µM): 27.4%
viability, T/C (second compound 1 µM, first compound 0.3 µM): 1.75%
viability, T/C (second compound 3.16 µM, first compound 0.000949 µM): 110%
viability, T/C (second compound 3.16 µM, first compound 0.003 µM): 99.4%
viability, T/C (second compound 3.16 µM, first compound 0.00949 µM): 101%
viability, T/C (second compound 3.16 µM, first compound 0.03 µM): 95.8%
viability, T/C (second compound 3.16 µM, first compound 0.0949 µM): 13.2%
viability, T/C (second compound 3.16 µM, first compound 0.3 µM): 0.68%
viability, T/C (second compound 10 µM, first compound 0.000949 µM): 92%
viability, T/C (second compound 10 µM, first compound 0.003 µM): 92.4%
viability, T/C (second compound 10 µM, first compound 0.00949 µM): 92.5%
viability, T/C (second compound 10 µM, first compound 0.03 µM): 91.7%
viability, T/C (second compound 10 µM, first compound 0.0949 µM): 13.4%
viability, T/C (second compound 10 µM, first compound 0.3 µM): 0.55%

C#Cc1c(F)ccc2cc(O)cc(-c3ncc4c(N5CC6CCC(C5)N6)nc(OCC56CCCN5CC(F)C6)nc4c3F)c12 (stereo not given) + CNC(C)C(=O)NC1CN(S(=O)(=O)c2cccc(S(=O)(=O)N3CCC4CCC(C(=O)NC(c5ccccc5)c5ccccc5)N4C(=O)C(NC(=O)C(C)NC)C3)c2)CCC2CCC(C(=O)NC(c3ccccc3)c3ccccc3)N2C1=O
IC50 (second compound 0.01 µM): 0.571 µM
IC50 (second compound 0.0316 µM): 0.56 µM
IC50 (second compound 0.1 µM): 0.452 µM
IC50 (second compound 0.316 µM): 0.313 µM
IC50 (second compound 1 µM): 0.23 µM
viability, T/C (second compound 0.01 µM, first compound 0.0316 µM): 110%
viability, T/C (second compound 0.01 µM, first compound 0.1 µM): 110%
viability, T/C (second compound 0.01 µM, first compound 0.316 µM): 68.6%
viability, T/C (second compound 0.01 µM, first compound 1 µM): 31.6%
viability, T/C (second compound 0.01 µM, first compound 3.16 µM): 18.1%
viability, T/C (second compound 0.01 µM, first compound 10 µM): 10.9%
viability, T/C (second compound 0.0316 µM, first compound 0.0316 µM): 119%
viability, T/C (second compound 0.0316 µM, first compound 0.1 µM): 98.4%
viability, T/C (second compound 0.0316 µM, first compound 0.316 µM): 72.2%
viability, T/C (second compound 0.0316 µM, first compound 1 µM): 27.7%
viability, T/C (second compound 0.0316 µM, first compound 3.16 µM): 16.8%
viability, T/C (second compound 0.0316 µM, first compound 10 µM): 9.61%
viability, T/C (second compound 0.1 µM, first compound 0.0316 µM): 111%
viability, T/C (second compound 0.1 µM, first compound 0.1 µM): 99.9%
viability, T/C (second compound 0.1 µM, first compound 0.316 µM): 61%
viability, T/C (second compound 0.1 µM, first compound 1 µM): 24.6%
viability, T/C (second compound 0.1 µM, first compound 3.16 µM): 13.2%
viability, T/C (second compound 0.1 µM, first compound 10 µM): 8.58%
viability, T/C (second compound 0.316 µM, first compound 0.0316 µM): 128%
viability, T/C (second compound 0.316 µM, first compound 0.1 µM): 90%
viability, T/C (second compound 0.316 µM, first compound 0.316 µM): 53.2%
viability, T/C (second compound 0.316 µM, first compound 1 µM): 18.4%
viability, T/C (second compound 0.316 µM, first compound 3.16 µM): 10.1%
viability, T/C (second compound 0.316 µM, first compound 10 µM): 8.04%
viability, T/C (second compound 1 µM, first compound 0.0316 µM): 123%
viability, T/C (second compound 1 µM, first compound 0.1 µM): 91.4%
viability, T/C (second compound 1 µM, first compound 0.316 µM): 34%
viability, T/C (second compound 1 µM, first compound 1 µM): 11.7%
viability, T/C (second compound 1 µM, first compound 3.16 µM): 8.66%
viability, T/C (second compound 1 µM, first compound 10 µM): 6.64%

CNC(C)C(=O)NC1CN(S(=O)(=O)c2cccc(S(=O)(=O)N3CCC4CCC(C(=O)NC(c5ccccc5)c5ccccc5)N4C(=O)C(NC(=O)C(C)NC)C3)c2)CCC2CCC(C(=O)NC(c3ccccc3)c3ccccc3)N2C1=O (stereo not given) + CCN1C(C(=O)NC23CCC(C(=O)O)(CC2)CC3)C(c2cccc(Cl)c2F)C2(C(=O)Nc3cc(Cl)ccc32)C12CCCCC2
IC50 (second compound 0.03 µM): > 1 µM
IC50 (second compound 0.0949 µM): > 1 µM
IC50 (second compound 0.3 µM): > 1 µM
IC50 (second compound 0.949 µM): 0.415 µM
IC50 (second compound 3 µM): < 0.00316 µM
viability, T/C (second compound 0.03 µM, first compound 0.00316 µM): 101%
viability, T/C (second compound 0.03 µM, first compound 0.01 µM): 131%
viability, T/C (second compound 0.03 µM, first compound 0.0316 µM): 113%
viability, T/C (second compound 0.03 µM, first compound 0.1 µM): 102%
viability, T/C (second compound 0.03 µM, first compound 0.316 µM): 113%
viability, T/C (second compound 0.03 µM, first compound 1 µM): 112%
viability, T/C (second compound 0.0949 µM, first compound 0.00316 µM): 115%
viability, T/C (second compound 0.0949 µM, first compound 0.01 µM): 114%
viability, T/C (second compound 0.0949 µM, first compound 0.0316 µM): 111%
viability, T/C (second compound 0.0949 µM, first compound 0.1 µM): 94.9%
viability, T/C (second compound 0.0949 µM, first compound 0.316 µM): 82.5%
viability, T/C (second compound 0.0949 µM, first compound 1 µM): 84.9%
viability, T/C (second compound 0.3 µM, first compound 0.00316 µM): 73.6%
viability, T/C (second compound 0.3 µM, first compound 0.01 µM): 79.6%
viability, T/C (second compound 0.3 µM, first compound 0.0316 µM): 87%
viability, T/C (second compound 0.3 µM, first compound 0.1 µM): 77.2%
viability, T/C (second compound 0.3 µM, first compound 0.316 µM): 77.2%
viability, T/C (second compound 0.3 µM, first compound 1 µM): 56.6%
viability, T/C (second compound 0.949 µM, first compound 0.00316 µM): 60.8%
viability, T/C (second compound 0.949 µM, first compound 0.01 µM): 54.8%
viability, T/C (second compound 0.949 µM, first compound 0.0316 µM): 56.7%
viability, T/C (second compound 0.949 µM, first compound 0.1 µM): 55.7%
viability, T/C (second compound 0.949 µM, first compound 0.316 µM): 55.6%
viability, T/C (second compound 0.949 µM, first compound 1 µM): 32.4%
viability, T/C (second compound 3 µM, first compound 0.00316 µM): 36.9%
viability, T/C (second compound 3 µM, first compound 0.01 µM): 37.6%
viability, T/C (second compound 3 µM, first compound 0.0316 µM): 36.2%
viability, T/C (second compound 3 µM, first compound 0.1 µM): 31.5%
viability, T/C (second compound 3 µM, first compound 0.316 µM): 29.6%
viability, T/C (second compound 3 µM, first compound 1 µM): 28.8%
